According to PubChem BioAssay (NCI):
Values joined by “and” are separate entries in the source; they are usually repeats but may differ in a detail not shown here. Identical values can stand only once.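 Five concentrations, 48 hours, 96-well plates. Here, GI50 denotes the concentration required for 50% inhibition of growth. At the TGI there is no net growth.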

Legend:
Experiment in all cases: growth of human tumour cells (NCI), 48 h; in the data active = GI50 below about 0.43 µM; inactive = the rest
LOX IMVI melanoma = tested on: LOX IMVI melanoma
MALME-3M melanoma = tested on: MALME-3M melanoma
A549 NSCLC = tested on: A549 NSCLC
TK-10 renal = tested on: TK-10 renal
NCI-H522 lung = tested on: NCI-H522 lung
NCI-H460 lung = tested on: NCI-H460 lung
HCC-2998 colon = tested on: HCC-2998 colon
SNB-75 CNS = tested on: SNB-75 CNS
MOLT-4 leukemia = tested on: MOLT-4 leukemia
RPMI-8226 leukemia = tested on: RPMI-8226 leukemia
UACC-257 melanoma = tested on: UACC-257 melanoma
SN12C renal = tested on: SN12C renal
OVCAR-5 ovarian = tested on: OVCAR-5 ovarian
U251 CNS = tested on: U251 CNS
M19-MEL melanoma = tested on: M19-MEL melanoma
SNB-19 CNS = tested on: SNB-19 CNS
HCT-15 colon = tested on: HCT-15 colon
SW-620 colon = tested on: SW-620 colon
786-0 renal = tested on: 786-0 renal
SK-MEL-28 melanoma = tested on: SK-MEL-28 melanoma
K-562 leukemia = tested on: K-562 leukemia
COLO 205 colon = tested on: COLO 205 colon
CAKI-1 renal = tested on: CAKI-1 renal
SF-295 CNS = tested on: SF-295 CNS
A498 renal = tested on: A498 renal
HOP-18 NSCLC = tested on: HOP-18 NSCLC
SF-539 CNS = tested on: SF-539 CNS
SF-268 CNS = tested on: SF-268 CNS
OVCAR-4 ovarian = tested on: OVCAR-4 ovarian
CCRF-CEM leukemia = tested on: CCRF-CEM leukemia
DLD-1 colon = tested on: DLD-1 colon
LXFL 529 NSCLC = tested on: LXFL 529 NSCLC
DMS 273 small cell lung = tested on: DMS 273 small cell lung
SK-MEL-2 melanoma = tested on: SK-MEL-2 melanoma
OVCAR-3 ovarian = tested on: OVCAR-3 ovarian
XF 498 CNS = tested on: XF 498 CNS
EKVX NSCLC = tested on: EKVX NSCLC
DMS 114 small cell lung = tested on: DMS 114 small cell lung
NCI-H23 lung = tested on: NCI-H23 lung
IGROV1 ovarian = tested on: IGROV1 ovarian
KM12 colon = tested on: KM12 colon
ACHN renal = tested on: ACHN renal
M14 melanoma = tested on: M14 melanoma
SNB-78 CNS = tested on: SNB-78 CNS
HOP-62 NSCLC = tested on: HOP-62 NSCLC
HL-60(TB) leukemia = tested on: HL-60(TB) leukemia
RXF 393 renal = tested on: RXF 393 renal
UACC-62 melanoma = tested on: UACC-62 melanoma
UO-31 renal = tested on: UO-31 renal
SK-OV-3 ovarian = tested on: SK-OV-3 ovarian
HT29 colon = tested on: HT29 colon
SK-MEL-5 melanoma = tested on: SK-MEL-5 melanoma
OVCAR-8 ovarian = tested on: OVCAR-8 ovarian
HOP-92 NSCLC = tested on: HOP-92 NSCLC
KM20L2 colon = tested on: KM20L2 colon

NCCCNCCSSC/C=C\CSSCCNCCCN
> 100 µM: TGI (LOX IMVI melanoma) | TGI (MALME-3M melanoma) | TGI (A549 NSCLC) | TGI (TK-10 renal) | TGI (NCI-H460 lung) | TGI (HCC-2998 colon) | TGI (SNB-75 CNS) | TGI (RPMI-8226 leukemia) | TGI (SN12C renal) | TGI (OVCAR-5 ovarian) | TGI (U251 CNS) | TGI (M19-MEL melanoma) | TGI (SNB-19 CNS) | TGI (HCT-15 colon) | TGI (SW-620 colon) | TGI (786-0 renal) | TGI (SK-MEL-28 melanoma) | TGI (COLO 205 colon) | TGI (CAKI-1 renal) | TGI (SF-295 CNS) | TGI (A498 renal) | TGI (HOP-18 NSCLC) | TGI (SF-539 CNS) | TGI (SF-268 CNS) | TGI (OVCAR-4 ovarian) | TGI (DLD-1 colon) | TGI (DMS 273 small cell lung) | TGI (SK-MEL-2 melanoma) | TGI (OVCAR-3 ovarian) | TGI (XF 498 CNS) | TGI (EKVX NSCLC) | TGI (DMS 114 small cell lung) | TGI (NCI-H23 lung) | TGI (IGROV1 ovarian) | TGI (ACHN renal) | TGI (M14 melanoma) | TGI (SNB-78 CNS) | TGI (RXF 393 renal) | TGI (UACC-62 melanoma) | TGI (UO-31 renal) | TGI (SK-OV-3 ovarian) | TGI (SK-MEL-5 melanoma) | TGI (OVCAR-8 ovarian) | TGI (KM20L2 colon)
inactive: GI50 (A549 NSCLC) > 100 µM and 46.8 µM | GI50 (SF-295 CNS) 81.3 µM and 39.9 µM | GI50 (SNB-78 CNS) 55 µM and 24.8 µM | GI50 (HOP-62 NSCLC) > 100 µM and 33.2 µM | GI50 (RXF 393 renal) 83.3 µM and 30.6 µM | GI50 (KM20L2 colon) > 100 µM and 38.9 µM
42.5 µM and 24.7 µM: TGI (NCI-H522 lung)
38.7 µM and 36.3 µM: TGI (KM12 colon)
62 µM and 57.3 µM: TGI (MOLT-4 leukemia)
46.4 µM and 39.1 µM: TGI (HL-60(TB) leukemia)
> 100 µM and 93.4 µM: TGI (HOP-62 NSCLC)
> 100 µM and 76.8 µM: TGI (UACC-257 melanoma)
32.3 µM and 62.5 µM: TGI (CCRF-CEM leukemia)
> 100 µM and 88.4 µM: TGI (LXFL 529 NSCLC)
86.3 µM and 84.5 µM: TGI (HOP-92 NSCLC)
31.4 µM and 27.5 µM: TGI (HT29 colon)
62.3 µM and 65.1 µM: TGI (K-562 leukemia)
